Experimental data reported in US20190374576A1, “VIRAL METHODS OF T CELL THERAPY” (Intima Bioscience, Inc., priority 2016, published 2019).

What was measured:
Assay in all cases: Validation of gRNAs: Surveyor digest, gel electrophoresis, densitometry in HEK293T cells
Format in all cases: cell-based, human
CCR5 = CCR5 target gene site, 3 days
Experimental: (§1) HEK293T cells were plated out at a density of 1×10^5 cells per well in a 24 well plate. 150 uL of Opti-MEM medium was combined with 1.5 ug of gRNA plasmid, 1.5 ug of Cas9 plasmid. Another 150 uL of Opti-MEM medium was combined with 5 ul of Lipofectamine 2000 Transfection reagent (Invitrogen). The solutions were combined together and incubated for 15 minutes at room temperature. The DNA-lipid complex was added dropwise to wells of the 24 well plates. Cells were incubated for 3 days at 37° C. and genomic DNA was collected using the GeneJET Genomic DNA Purification Kit (Thermo Scientific). Activity of the gRNAs was quantified by a Surveyor Digest, gel electrophoresis, and densitometry (FIG. 60 and FIG. 61) (Guschin, D. Y., et al., “A Rapid and General Assay for Monitoring Endogenous Gene Modification,” Methods in Molecular Biology, 649: 247-256 (2010)).

PD1 = PD1 target gene site, 3 days
Experimental: HEK293T cells were plated out at a density of 1×10^5 cells per well in a 24 well plate. 150 uL of Opti-MEM medium was combined with 1.5 ug of gRNA plasmid, 1.5 ug of Cas9 plasmid. Another 150 uL of Opti-MEM medium was combined with 5 ul of Lipofectamine 2000 Transfection reagent (Invitrogen). The solutions were combined together and incubated for 15 minutes at room temperature. […] Cells were incubated for 3 days at 37° C. and genomic DNA was collected using the GeneJET Genomic DNA Purification Kit (Thermo Scientific). Activity of the gRNAs was quantified by a Surveyor Digest, gel electrophoresis, and densitometry (FIG. 60 and FIG. 61) (Guschin, D. Y., et al., “A Rapid and General Assay for Monitoring Endogenous Gene Modification,” Methods in Molecular Biology, 649: 247-256 (2010)).

CTLA4 = CTLA4 target gene site, 3 days
Experimental: as §1

Molecule: CCR5 gRNA#2: sense primer SEQ ID 63 CACCGTCATCCTCCTGACAATCGAT
- efficiency of Cas9/gRNA pair in creating double strand break (DSB), percent of gene modifications (CCR5): >60%

Molecule: PD1 gRNA#2: sense primer SEQ ID 35 CACCGCCTGCTCGTGGTGACCGAAG
- efficiency of Cas9/gRNA pair in creating double strand break (DSB), percent of gene modifications (PD1): >60%

B1: CTLA4 gRNA#3: sense primer (SEQ ID printed 'Si') … (nucleic acid)
guide: GCTAGATGATTCCATCTGCACGUUUUAGAGCUAGAAAUAGCAAGUUAAAAUAAGGCUAGUCCGUUAUCAACUUGAAAAAGUGGCACCGAGUCGGUGCUUUU
modifications: 2'-O-methyl 3'-phosphorothioate modifications added, positions not given here
- efficiency of Cas9/gRNA pair in creating double strand break (DSB), percent of gene modifications (CTLA4): 39.33%
